Values of other authors as cited in US20110171717A1, “METHOD FOR ENHANCING […]” (priority 2006, published 2011).

Tested on: polymerase
Details: cited from earlier work; for effect on polymerase activity: known from Weyant et al., BioTechniques 1990

Compound | effect on polymerase activity at low concentration (e.g., 0.01% of SDS) | effect on polymerase activity
CCCCCCCCCCCCOS(=O)(=O)[O-].[Na+] [SDS, Sodium dodecyl sulfate] | inhibit a polymerase activity even at low concentrations | inhibit a polymerase activity
Sodium deoxycholate | – | inhibit a polymerase activity
CCCCCCCCCCCC(=O)N(C)CC(=O)[O-].[Na+] [sodium N-lauroyl sarcosinate, N-Lauroylsarcosine-sodium salt] | – | inhibit a polymerase activity
